Reference: the supplement of paper PMC12350171

What was measured:
Eubacterium rectale = assay: IC25 growth inhibition; higher = less potent
Outline: (§1)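 Overnight monocultures grown in mGAM were moved into pre-reduced plates containing twofold drug dilutions, at a starting OD578 of 0.01 with 1% DMSO (or water). Plates were kept anaerobic and read hourly at OD578 in a plate reader, with at least three biological replicates. For each concentration, the median area under the growth curve was made monotonic, and IC25 was the lowest concentration whose median fell below a cutoff, reported as a tested interval. That cutoff was 0.75.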

Clostridium bolteae = assay: IC25 growth inhibition; higher = less potent
Outline: as §1

Roseburia intestinalis = assay: IC25 growth inhibition; higher = less potent
Outline: as §1

[1] = system: Yersinia enterocolitica WA-314; assay: IC25 growth inhibition; higher = less potent
Outline: as §1

Shigella flexneri = assay: IC25 growth inhibition; higher = less potent
Outline: as §1

[2] = system: Fusobacterium nucleatum subsp. Nucleatum; assay: IC25 growth inhibition; higher = less potent
Outline: as §1

Ruminococcus gnavus = assay: IC25 growth inhibition; higher = less potent
Outline: as §1

Dorea formicigenerans = assay: IC25 growth inhibition; higher = less potent
Outline: as §1

Streptococcus salivarius = assay: IC25 growth inhibition; higher = less potent
Outline: as §1

Parabacteroides merdae = assay: IC25 growth inhibition; higher = less potent
Outline: as §1

[3] = system: Streptococcus parasanguinis; assay: IC25 growth inhibition; higher = less potent
Outline: as §1

Bacteroides uniformis = assay: IC25 growth inhibition; higher = less potent
Outline: as §1

Escherichia coli ED1a = assay: IC25 growth inhibition; higher = less potent
Outline: as §1

[4] = system: Clostridium saccharolyticum; assay: IC25 growth inhibition; higher = less potent
Outline: as §1

Vibrio cholerae = assay: IC25 growth inhibition; higher = less potent
Outline: as §1

[5] = system: Bacteroides thetaiotaomicron; assay: IC25 growth inhibition; higher = less potent
Outline: as §1

Bacteroides vulgatus = assay: IC25 growth inhibition; higher = less potent
Outline: as §1

Bacteroides fragilis NT = assay: IC25 growth inhibition; higher = less potent
Outline: as §1

Coprococcus comes = assay: IC25 growth inhibition; higher = less potent
Outline: as §1

Clostridium ramosum = assay: IC25 growth inhibition; higher = less potent
Outline: as §1

Clostridium perfringens = assay: IC25 growth inhibition; higher = less potent
Outline: as §1

[6] = system: Salmonella enterica typhimurium; assay: IC25 growth inhibition; higher = less potent
Outline: as §1

Collinsella aerofaciens = assay: IC25 growth inhibition; higher = less potent
Outline: as §1

[7] = system: Yersinia pseudotuberculosis; assay: IC25 growth inhibition; higher = less potent
Outline: as §1

[8] = system: Com21 synthetic gut community; assay: community biomass OD578 after 24 h drug treatment relative to untreated (fraction of untreated control); higher = more community growth; conditions: community: Com21 (Com20 + E. coli ED1a)
Method: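 Com21 (Com20 plus E. coli ED1a) was treated with drug for 24 h under anaerobic conditions in mGAM. Community OD578 was then measured and normalised to untreated Com21; mean of 3 biological replicates.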

[9] = drug pretreatment concentration 10 µM
[10] = drug pretreatment concentration 20 µM
[11] = drug pretreatment concentration 40 µM
[12] = drug pretreatment concentration 80 µM
[13] = drug pretreatment concentration 160 µM
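For IC25 growth inhibition in this document: lowest concentration where monotonic median growth AUC falls below 0.75 of drug-free control.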

C[C@H]1O[C@H](O[C@H]2[C@H](O)[C@@H](O)[C@@H](O[C@H]3[C@H](O)[C@@H](O)C(O)O[C@@H]3CO)O[C@@H]2CO)[C@H](O)[C@@H](O)[C@@H]1N[C@H]1C=C(CO)[C@@H](O)[C@H](O)[C@H]1O (stereo partly drawn) [Acarbose]
> 160 µM: IC25 growth inhibition (Clostridium bolteae) | IC25 growth inhibition [1] | IC25 growth inhibition (Shigella flexneri) | IC25 growth inhibition [2] | IC25 growth inhibition (Ruminococcus gnavus) | IC25 growth inhibition (Dorea formicigenerans) | IC25 growth inhibition (Streptococcus salivarius) | IC25 growth inhibition (Parabacteroides merdae) | IC25 growth inhibition [3] | IC25 growth inhibition (Bacteroides uniformis) | IC25 growth inhibition (Escherichia coli ED1a) | IC25 growth inhibition [4] | IC25 growth inhibition (Vibrio cholerae) | IC25 growth inhibition [5] | IC25 growth inhibition (Coprococcus comes) | IC25 growth inhibition (Clostridium ramosum) | IC25 growth inhibition (Clostridium perfringens) | IC25 growth inhibition [6] | IC25 growth inhibition (Collinsella aerofaciens) | IC25 growth inhibition [7]
≤ 10 µM: IC25 growth inhibition (Bacteroides fragilis NT)
≤ 40 µM: IC25 growth inhibition (Eubacterium rectale) | IC25 growth inhibition (Bacteroides vulgatus)
1.03: community biomass OD578 [8, 9]
0.989: community biomass OD578 [8, 13]
≤ 20 µM: IC25 growth inhibition (Roseburia intestinalis)
1.01: community biomass OD578 [8, 10]
1: community biomass OD578 [8, 11] | community biomass OD578 [8, 12]

C[C@@H](O[C@H]1OCCN(Cc2n[nH]c(=O)[nH]2)[C@H]1c1ccc(F)cc1)c1cc(C(F)(F)F)cc(C(F)(F)F)c1 [Aprepitant]
0.981: community biomass OD578 [8, 10]
0.788: community biomass OD578 [8, 11]
1: community biomass OD578 [8, 9]
1.01: community biomass OD578 [8, 13]
1.03: community biomass OD578 [8, 12]
> 160 µM: IC25 growth inhibition (Eubacterium rectale) | IC25 growth inhibition (Clostridium bolteae) | IC25 growth inhibition (Roseburia intestinalis) | IC25 growth inhibition [1] | IC25 growth inhibition (Shigella flexneri) | IC25 growth inhibition [2] | IC25 growth inhibition (Ruminococcus gnavus) | IC25 growth inhibition (Dorea formicigenerans) | IC25 growth inhibition (Streptococcus salivarius) | IC25 growth inhibition (Parabacteroides merdae) | IC25 growth inhibition [3] | IC25 growth inhibition (Bacteroides uniformis) | IC25 growth inhibition (Escherichia coli ED1a) | IC25 growth inhibition [4] | IC25 growth inhibition (Vibrio cholerae) | IC25 growth inhibition [5] | IC25 growth inhibition (Bacteroides vulgatus) | IC25 growth inhibition (Bacteroides fragilis NT) | IC25 growth inhibition (Coprococcus comes) | IC25 growth inhibition (Clostridium ramosum) | IC25 growth inhibition (Clostridium perfringens) | IC25 growth inhibition [6]
> 80 µM: IC25 growth inhibition (Collinsella aerofaciens) | IC25 growth inhibition [7]

CCc1oc2ccccc2c1C(=O)c1cc(Br)c(O)c(Br)c1 [Benzbromarone]
0.301: community biomass OD578 [8, 13]
> 160 µM: IC25 growth inhibition [1] | IC25 growth inhibition (Shigella flexneri) | IC25 growth inhibition (Escherichia coli ED1a) | IC25 growth inhibition [6] | IC25 growth inhibition [7]
≤ 40 µM: IC25 growth inhibition (Clostridium bolteae) | IC25 growth inhibition (Roseburia intestinalis) | IC25 growth inhibition (Dorea formicigenerans) | IC25 growth inhibition (Coprococcus comes) | IC25 growth inhibition (Collinsella aerofaciens)
0.687: community biomass OD578 [8, 12]
≤ 20 µM: IC25 growth inhibition (Eubacterium rectale) | IC25 growth inhibition (Ruminococcus gnavus) | IC25 growth inhibition (Parabacteroides merdae) | IC25 growth inhibition [5] | IC25 growth inhibition (Bacteroides vulgatus) | IC25 growth inhibition (Bacteroides fragilis NT) | IC25 growth inhibition (Clostridium ramosum)
≤ 160 µM: IC25 growth inhibition (Vibrio cholerae)
≤ 80 µM: IC25 growth inhibition [2]
0.812: community biomass OD578 [8, 11]
≤ 10 µM: IC25 growth inhibition (Streptococcus salivarius) | IC25 growth inhibition [3] | IC25 growth inhibition (Bacteroides uniformis) | IC25 growth inhibition [4] | IC25 growth inhibition (Clostridium perfringens)
0.86: community biomass OD578 [8, 10]
0.877: community biomass OD578 [8, 9]

CN(C)CCCN1c2ccccc2Sc2ccc(Cl)cc21 [Chlorpromazine]
0.941: community biomass OD578 [8, 11]
≤ 80 µM: IC25 growth inhibition (Roseburia intestinalis) | IC25 growth inhibition [2] | IC25 growth inhibition (Streptococcus salivarius) | IC25 growth inhibition (Bacteroides uniformis) | IC25 growth inhibition [4] | IC25 growth inhibition [5] | IC25 growth inhibition (Bacteroides fragilis NT) | IC25 growth inhibition (Clostridium perfringens)
0.927: community biomass OD578 [8, 12]
≤ 40 µM: IC25 growth inhibition (Eubacterium rectale) | IC25 growth inhibition (Ruminococcus gnavus) | IC25 growth inhibition (Dorea formicigenerans) | IC25 growth inhibition (Parabacteroides merdae) | IC25 growth inhibition (Bacteroides vulgatus)
0.983: community biomass OD578 [8, 10]
> 160 µM: IC25 growth inhibition [1] | IC25 growth inhibition (Clostridium ramosum) | IC25 growth inhibition [6]
1: community biomass OD578 [8, 9]
≤ 160 µM: IC25 growth inhibition (Clostridium bolteae) | IC25 growth inhibition (Shigella flexneri) | IC25 growth inhibition [3] | IC25 growth inhibition (Escherichia coli ED1a) | IC25 growth inhibition (Vibrio cholerae) | IC25 growth inhibition (Coprococcus comes) | IC25 growth inhibition (Collinsella aerofaciens) | IC25 growth inhibition [7]
0.813: community biomass OD578 [8, 13]

CN(C)CC/C=C1/c2ccccc2Sc2ccc(Cl)cc21 [Chlorprothixene]
≤ 160 µM: IC25 growth inhibition (Clostridium bolteae) | IC25 growth inhibition (Shigella flexneri) | IC25 growth inhibition (Ruminococcus gnavus) | IC25 growth inhibition (Streptococcus salivarius) | IC25 growth inhibition (Parabacteroides merdae) | IC25 growth inhibition (Coprococcus comes) | IC25 growth inhibition (Collinsella aerofaciens) | IC25 growth inhibition [7]
≤ 80 µM: IC25 growth inhibition (Eubacterium rectale) | IC25 growth inhibition [2] | IC25 growth inhibition [4] | IC25 growth inhibition (Bacteroides fragilis NT) | IC25 growth inhibition (Clostridium perfringens)
≤ 40 µM: IC25 growth inhibition (Roseburia intestinalis) | IC25 growth inhibition (Dorea formicigenerans) | IC25 growth inhibition (Bacteroides uniformis) | IC25 growth inhibition [5] | IC25 growth inhibition (Bacteroides vulgatus)
0.48: community biomass OD578 [8, 13]
> 160 µM: IC25 growth inhibition [1] | IC25 growth inhibition [3] | IC25 growth inhibition (Escherichia coli ED1a) | IC25 growth inhibition (Clostridium ramosum) | IC25 growth inhibition [6]
0.988: community biomass OD578 [8, 9]
≤ 20 µM: IC25 growth inhibition (Vibrio cholerae)
0.965: community biomass OD578 [8, 12]
0.99: community biomass OD578 [8, 11]
1.02: community biomass OD578 [8, 10]

COCCOC(=O)C1=C(C)NC(C)=C(C(=O)OC/C=C/c2ccccc2)C1c1cccc([N+](=O)[O-])c1 (stereo not drawn) [Cilnidipine]
> 20 µM: IC25 growth inhibition (Ruminococcus gnavus) | IC25 growth inhibition (Parabacteroides merdae) | IC25 growth inhibition [3] | IC25 growth inhibition (Clostridium perfringens)
1.06: community biomass OD578 [8, 9]
> 10 µM: IC25 growth inhibition (Eubacterium rectale) | IC25 growth inhibition (Clostridium bolteae) | IC25 growth inhibition (Roseburia intestinalis) | IC25 growth inhibition (Shigella flexneri) | IC25 growth inhibition [2] | IC25 growth inhibition (Dorea formicigenerans) | IC25 growth inhibition (Streptococcus salivarius) | IC25 growth inhibition [4] | IC25 growth inhibition (Vibrio cholerae) | IC25 growth inhibition [5] | IC25 growth inhibition (Bacteroides vulgatus) | IC25 growth inhibition (Bacteroides fragilis NT) | IC25 growth inhibition (Coprococcus comes) | IC25 growth inhibition (Collinsella aerofaciens) | IC25 growth inhibition [7]
1.03: community biomass OD578 ([8]; drug pretreatment concentration 2.5 µM) | community biomass OD578 [8, 10]
> 5 µM: IC25 growth inhibition [1] | IC25 growth inhibition (Clostridium ramosum) | IC25 growth inhibition [6]
> 40 µM: IC25 growth inhibition (Bacteroides uniformis) | IC25 growth inhibition (Escherichia coli ED1a)
1: community biomass OD578 ([8]; drug pretreatment concentration 5 µM)
0.993: community biomass OD578 [8, 11]

Clc1ccc(Cn2c(CN3CCCC3)nc3ccccc32)cc1 [Clemizole]
≤ 5 µM: IC25 growth inhibition (Roseburia intestinalis)
> 160 µM: IC25 growth inhibition (Clostridium bolteae) | IC25 growth inhibition [1] | IC25 growth inhibition (Shigella flexneri) | IC25 growth inhibition (Streptococcus salivarius) | IC25 growth inhibition [3] | IC25 growth inhibition (Bacteroides uniformis) | IC25 growth inhibition (Escherichia coli ED1a) | IC25 growth inhibition (Bacteroides fragilis NT) | IC25 growth inhibition [6] | IC25 growth inhibition [7]
≤ 20 µM: IC25 growth inhibition (Collinsella aerofaciens)
1.02: community biomass OD578 [8, 12]
≤ 80 µM: IC25 growth inhibition [4] | IC25 growth inhibition (Vibrio cholerae)
0.964: community biomass OD578 [8, 13]
1.03: community biomass OD578 [8, 11]
≤ 160 µM: IC25 growth inhibition [2] | IC25 growth inhibition (Parabacteroides merdae) | IC25 growth inhibition [5] | IC25 growth inhibition (Bacteroides vulgatus) | IC25 growth inhibition (Clostridium perfringens)
1: community biomass OD578 [8, 10]
1.01: community biomass OD578 [8, 9]
≤ 10 µM: IC25 growth inhibition (Ruminococcus gnavus) | IC25 growth inhibition (Clostridium ramosum)
≤ 2.5 µM: IC25 growth inhibition (Eubacterium rectale) | IC25 growth inhibition (Dorea formicigenerans) | IC25 growth inhibition (Coprococcus comes)
